The nature of the data set: Human HepG2 cell viability assay in 384 well format. It is filed as toxicity, cell-based. Further details: dose 125 nL, time 70.5 hour; cytotoxicity at 70.5 h: concentration not given beside the values. The note with it: HepG2 cells, read-out: Inhibition.
`Cc1nc(-c2ccncc2)ncc1C(C)NC(=O)CN1CCCC1=O` (stereo unspecified): the cytotoxicity at 70.5 h is -5.92%.

Turning to `Cc1nc(C)c(CC(=O)N2C[C@H]3CC[C@@H]2CN(c2cnccn2)C3)s1`, the cytotoxicity at 70.5 h is -4.55%. Under `Cc1ccc(N(CC(=O)NCc2nnc3n2CCC3)S(C)(=O)=O)cc1` stands 5.02%. The same measure for `O=C(c1ccc(S(=O)(=O)NCc2ccon2)cc1)N1CCOCC1`: 19.9%; for `COc1ccc(CN2CCC(O)(CN3CCCCC3)C2)c(C)c1` (stereo unspecified): -1.76%; for `O=C(c1cccnc1)N1CCOC(CCCc2ccccc2)C1` (stereo unspecified): 0.528%. Under `Cn1ncc(C2CC(=O)NCc3nc4ccccn4c32)c1C1CC1` (stereo unspecified) stands -11.4%; under `CC(C1CCN(Cc2c(Cl)cncc2Cl)CC1)N1CCN(C)CC1` (stereo unspecified), 14.7%. Regarding `CN(C)C(=O)CN1C[C@@H]2CC[C@H](C1)N(Cc1c(F)cccc1Cl)C2`, the cytotoxicity at 70.5 h was -6.28%.

For the compound `Cc1nccn1CCC1CCCCN1C(=O)c1ccc(N(C)C)cc1` (stereo unspecified), the cytotoxicity at 70.5 h was -3.37%. With `CN1C(=O)C(c2ccccc2)CC12CCN(CCN1CCCC1=O)CC2` (stereo unspecified), the cytotoxicity at 70.5 h was found to be 12.2%. Consider `CCSc1ncc(CN2CCN(c3nc(C)ncc3C)CC2)cn1`, for which the cytotoxicity at 70.5 h is -11.5%.

Turning to `O=C(NCc1nnc2n1CCC2)c1ccc(C2CCCO2)s1` (stereo unspecified), the cytotoxicity at 70.5 h was -4.87%.

Regarding `COC(=O)NCC(=O)N1CCC(c2nc3cc(F)ccc3[nH]2)CC1`, the cytotoxicity at 70.5 h was -2%. The same measure for `Nc1nc2c(c(N3CCCC3)n1)CCN(Cc1ccccn1)CC2`: 8.7%; for `CCCc1nnc(N2CCC(N3CCCC(O)C3)CC2)o1` (stereo unspecified): 7.96%; for `c1ccc(CCc2n[nH]c(C3CCOC3)n2)cc1` (stereo unspecified): -10.1%. In the case of `CCc1nc(C)c(CN2CCOC(CCCC(C)C)C2)[nH]1` (stereo unspecified), the cytotoxicity at 70.5 h turned out to be 27.1%. Under `COc1ccc(OC)c(-n2c(COC(C)C)n[nH]c2=O)c1` stands -4.44%; under `CCc1c(C(=O)N2C[C@H]3CC[C@@H]2CN(c2cnccn2)C3)csc1C`, -6.26%. Under `COCC(=O)N1C[C@H]2CNC[C@@]2(C(=O)NCc2c(C)noc2C)C1` stands -0.367%; under `Cc1cc(C)nc(CN(C)C(=O)c2ccccc2C2CCNC2)c1` (stereo unspecified), -5.21%. As to `COc1cccc(C(C(=O)O)N2CCCN(C3CCCC3)CC2)c1OC` (stereo unspecified), the cytotoxicity at 70.5 h was 20.1%. Under `CN(Cc1nccn1C)C(=O)c1cccc(CCC(C)(C)O)c1` stands 7.23%; under `Cc1nc(CNC(=O)c2cc(COc3cccc(F)c3)[nH]n2)n[nH]1`, 15.3%. In the case of `O=C(Nc1ccc(F)cc1)C1CNCCN1C(=O)CC1CCCCC1` (stereo unspecified), the cytotoxicity at 70.5 h is 31.3%. Regarding `CCc1ocnc1C(=O)N1CCC2(CCCN(CC(C)(C)C)C2=O)C1` (stereo unspecified), the cytotoxicity at 70.5 h was -6.31%. Under `COCCc1noc(-c2ccc(-c3ccc(N)nc3)nc2)n1` stands -2.31%; under `COc1ccccc1OC1CCN(Cc2ccc(N(C)C)nc2)CC1`, -6.85%.

On to `OC1CCN(c2ccnc(NCCc3ccccc3Cl)n2)CC1`, for which the cytotoxicity at 70.5 h is -25.8%. The same measure for `CC(=O)N[C@@H]1CN(Cc2nnc(-c3ccccc3)o2)C[C@H]1C(C)C`: -16.1%; for `CCn1cc(-c2cc(-c3cc(CC(=O)O)cs3)nc(N)c2C#N)c(C)n1`: -0.397%; for `Cc1nc(N2CCC(C(O)c3nccn3C)CC2)c2sccc2n1` (stereo unspecified): 35.8%. Under `Cc1nn(C)c2nc(-c3ccccn3)nc(NCCCOC(C)C)c12` stands -0.266%. Under `Cc1ccc(S(N)(=O)=O)cc1C(=O)N1C[C@@H](CN(C)C)[C@@H](CO)C1` stands -5.13%; under `CCc1nnc(SCC(=O)N2CCc3[nH]nc(C4CCC4)c3C2)o1`, -2.31%; under `CCNc1ncc(C(=O)NC(CCN(C)C)c2ccccc2)cn1` (stereo unspecified), 26.8%.

For `CSc1ccc2cc(CN(C)CCc3cn[nH]c3)c(=O)[nH]c2c1`, the cytotoxicity at 70.5 h is 2.27%.

Consider `COCCN1CCCC2(CCN(Cc3nnc(C4CC4)o3)C2)C1=O` (stereo unspecified), for which the cytotoxicity at 70.5 h was -6.43%. Turning to `CCc1cc(C(=O)N2CC[C@@H](c3ccc4c(c3)OCO4)[C@H](O)C2)[nH]n1`, the cytotoxicity at 70.5 h was 25.7%. Take `O=C(c1ncoc1C1CC1)N1CCCN(CCCc2ccccc2)CC1`: the cytotoxicity at 70.5 h was -10.2%. Under `Cc1nc(CN2CCCC(CCc3c(F)cccc3F)C2)c[nH]1` (stereo unspecified) stands -2.43%. `O[C@H]1[C@H](n2cc(-c3ccccc3)nn2)c2ccccc2C12CCNCC2`: the cytotoxicity at 70.5 h was 2.04%. As to `Cc1cc(C(=O)N2CCC3(CCCN(CC4CC4)C3=O)C2)c(C)n1C` (stereo unspecified), the cytotoxicity at 70.5 h is -2.9%. Under `CN(CCO)C(=O)c1coc(CN2CCN(c3ccccc3F)CC2)n1` stands -7.76%; under `CCOCCn1nc(C)cc1C(=O)N1CCN(C(C)C)C(CC)C1` (stereo unspecified), -8.86%; under `CC(=O)N1CCCn2nc(CNS(=O)(=O)c3cc(C)cs3)cc2C1`, -4.2%.

In the case of `CC(C)c1cc(NCC(O)CO)n2nccc2n1` (stereo unspecified), the cytotoxicity at 70.5 h is -0.638%. The same measure for `CSCCCN1CCn2nc(CNC(C)=O)cc2C1`: 14.2%; for `OCCC1CN(C2CCC2)CCN1C1CCCC1` (stereo unspecified): -6.56%.

As for `O=C(O)C(c1ccc2c(c1)OCO2)N1CCC(C(=O)N2CCCC2)CC1` (stereo unspecified), the cytotoxicity at 70.5 h was -2.61%.

Take `CC(C)CN1CCCn2nc(CNC(=O)CCN)cc2C1`: the cytotoxicity at 70.5 h was -6.27%. Regarding `Cc1cc(N(C)Cc2noc(C)n2)n2nc(C)c(C)c2n1`, the cytotoxicity at 70.5 h was -8.45%. Take `CCc1ccccc1CN1CC[C@@H](NC(=O)c2cccnc2)[C@H](O)C1`: the cytotoxicity at 70.5 h came to 1.15%. On to `O=C(CCc1cc2n(n1)CCN(Cc1ncc[nH]1)C2)N1CCCC1`, for which the cytotoxicity at 70.5 h came out at 2.55%.

Regarding `Cc1[nH]nc(CCC(=O)N2CCCC(OCc3cccnc3)C2)c1C` (stereo unspecified), the cytotoxicity at 70.5 h was determined as 1.55%.

In the case of `CCCn1cc(C(=O)N(C)Cc2nc(-c3ccccn3)no2)c(C)n1`, the cytotoxicity at 70.5 h was -8.48%. `CCn1c(C2CCCN(Cc3nccn3CCOC)C2)nn(C)c1=O` (stereo unspecified): the cytotoxicity at 70.5 h is -11.9%. Turning to `CC1CCN(Cc2cnc(S(=O)(=O)CC3CC3)n2CC2CCCO2)CC1` (stereo unspecified), the cytotoxicity at 70.5 h was 11.8%.

`COCc1ncc(CN2CCC(Oc3ccccc3OC)CC2)cn1`: the cytotoxicity at 70.5 h is -10.9%. For `CC(C)c1cc(N2CCC(CCC(=O)NC3CC3)CC2)n2nccc2n1`, the cytotoxicity at 70.5 h was -10.7%.

As for `N#Cc1ccccc1C(=O)N1CCC2(CC(=O)NC2=O)C1` (stereo unspecified), the cytotoxicity at 70.5 h stood at 15.7%. As to `Cc1cc(F)ccc1OC1(C(=O)O)CCN(Cc2cccnc2N)CC1`, the cytotoxicity at 70.5 h was 0.105%. On to `C[C@@H]1CN(C(=O)c2ccc(C#N)nc2)CC[C@@]1(O)C1CCOCC1`, for which the cytotoxicity at 70.5 h is -9.58%. Under `CN1N=C(C(=O)N2CCCC(CCc3c(F)cccc3F)C2)CCC1=O` (stereo unspecified) stands -8.44%; under `CN(C)C(=O)CCC(=O)NCc1cccnc1-n1cnc2ccccc21`, -8.79%. The same measure for `CN(C)C(C(=O)N1CCC(N2CCSCC2)CC1)c1ccccc1F` (stereo unspecified): -3.23%.

Take `CCc1cnc(N2CCC(=O)N(CC3CC3)C(C(C)C)C2)nc1` (stereo unspecified): the cytotoxicity at 70.5 h was 8.36%. Under `Cn1cccc1CCC(=O)N1CCC2(CC1)c1ccccc1CC2O` (stereo unspecified) stands -12.2%; under `Cc1cc(C(=O)N2CCC(c3nccn3CCCN(C)C)CC2)no1`, 0.885%; under `COc1ccccc1Oc1ncccc1CNC(=O)[C@@H](C)NC(C)=O`, -0.828%. The same measure for `Cc1occc1C(=O)N1CCC2(CCCN(CC3CCC3)C2=O)C1` (stereo unspecified): -4.3%; for `CSc1cccc(CNC(=O)C2CC(=O)N(CCN(C)C)C2)c1` (stereo unspecified): 4.55%; for `COc1cc(C)c(CN2CCC3(CC2)C(C(=O)O)CC(=O)N3C)cc1C` (stereo unspecified): 3.6%.

Take `O=C(c1ccc(C2CCCO2)s1)N1Cc2ccccc2C1` (stereo unspecified): the cytotoxicity at 70.5 h came to 0.527%. Take `COc1ccc(NC(=O)CCC2CCCN(Cc3ncon3)C2)c(C)c1` (stereo unspecified): the cytotoxicity at 70.5 h was -4.69%. Consider `COc1ccc(OC)c(C2CCN(Cc3nc(C)n4ccccc34)C2)c1` (stereo unspecified), for which the cytotoxicity at 70.5 h is -12.6%.

Regarding `O=C(c1cncc(N2CCC3(CCNCC3)CC2)n1)N1CCCC1`, the cytotoxicity at 70.5 h amounted to 12.4%. `COc1ccccc1C1CNC(=O)c2nc(-c3cnn(C)c3)[nH]c2C1` (stereo unspecified): the cytotoxicity at 70.5 h was -7.47%. With `O=C1OC2(CCNCC2)CN1CC(=O)N1CCCC1c1ccco1` (stereo unspecified), the cytotoxicity at 70.5 h was -9.95%. The same measure for `Cc1nc[nH]c1CN1CCN(C(=O)c2cccs2)[C@H]2CS(=O)(=O)C[C@H]21`: -8.73%. Under `Cc1ccsc1[C@@H]1CCN(C(=O)c2cc3ccccc3[nH]2)C[C@H]1O` stands 0.623%; under `O=C(O)C1(Cc2ccccc2Cl)CCN(c2ncccc2F)CC1`, -6.72%; under `Cc1cnn(C(C)C2CC2)c1NC(=O)c1ccncc1` (stereo unspecified), -8.36%. Consider `CN(C)C(=O)CN1C[C@@H]2CC[C@H](C1)N(C(=O)Cc1ccccc1Cl)C2`, for which the cytotoxicity at 70.5 h was 8.11%. Under `CCCNC(=O)c1ccc2c(c1)C(=O)N(CC(C)C)C2=O` stands -1.77%; under `CSCCCN1CC[C@@H](NC(=O)c2cnccn2)[C@H](O)C1`, -10.8%. Under `CC(C)(C)N1CC(C(=O)N2CCN(CCn3cccc3)CC2)CC1=O` (stereo unspecified) stands -2.66%. Under `CSCC(=O)N1CCC2(CC1)c1ccccc1CC2O` (stereo unspecified) stands 16.5%; under `COC(=O)C1CCN(C(=O)c2ccc(NS(C)(=O)=O)c(C)c2)CC1`, -9.09%. `CCCN1CC(C(=O)Nc2ccccn2)CC1=O` (stereo unspecified): the cytotoxicity at 70.5 h was -5.78%. The same measure for `COC(=O)C1CCN(C(=O)c2ccc(N(C)S(C)(=O)=O)c(C)c2)CC1`: -10.1%; for `Cc1cnc(C)c(N2CCN(Cc3ccc(-c4cc[nH]n4)o3)CC2)n1`: -12.4%. Under `CCN(c1ccc(C(=O)N2CCCC2)cc1)S(=O)(=O)CC` stands -10.8%; under `CCC(NC(=O)C1CCN(S(=O)(=O)N(C)C)CC1)c1ccc(C)c(C)c1` (stereo unspecified), -5.81%. Under `CCC(C(=O)NCc1ccncc1)N(c1ccc(OC)cc1)S(C)(=O)=O` (stereo unspecified) stands -4.69%.

Values taken from ChEMBL document CHEMBL3507680, “University of Dundee, Gates Library screen for HepG2 cell viability”.
